Assay in all cases: inhibition of tumour cell growth, NCI panel, 48 h
In test [1] the test system is DLD-1.
Test [2] deals with DMS-114.
Test [3] concerns DMS-273.
Test [4] concerns HOP-18.
In test [5] the test system is M19-MEL.
Test [6] has as its system RXF 631.
In test [7] the test system is SNB-78.
Test [8] relates to XF498.
The subject of test [9] is KM-20L2.

Each structure is given as a SMILES string.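 Cultured in 96-well plates, cells were exposed to test compound for 48 hours across five concentrations. At the GI50, growth is halved.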 Calls of active or inactive are those of the source. No stated cut-off is given here; in the data, active = GI50 up to about 1.1 µM and inactive = higher.

For `CCOc1c(Cc2ccccc2)c(=O)n2c3ccccc3n3c(=O)n(C)c(=O)c1c23`, the GI50 in [1], in test [2], in test [3], in [4], in [5] and in [6] was > 100 µM (inactive) throughout. Moreover, the GI50 in test [7] and in [8] was > 100 µM (inactive) throughout.

Take `N#CC(C(=O)C(=O)Nc1ccc(Cl)c(Cl)c1)c1ccc(Cl)cc1` (stereo not drawn): the GI50 in test [1] is 44.1 µM (inactive); in test [2], 22.9 µM (inactive); in test [3], > 100 µM (inactive); in [4], 41 µM (inactive); in test [9], > 100 µM (inactive); in test [7], > 100 µM (inactive). In addition, the GI50 in test [8] was 61 µM (inactive).

Regarding `O=c1oc2c3ccc4ccccc4c3n(CCN3CCCCC3)c2c2ccccc12`, the GI50 in [1] is 30.2 µM (inactive); in test [2], > 76 µM (inactive); in test [3] it was 38.3 µM (inactive); in [4], > 100 µM (inactive); in test [9], > 61 µM (inactive); in test [5] it was 25.6 µM (inactive). For the same compound, the GI50 in test [6] is 24.6 µM (inactive); in test [7], 20.9 µM (inactive); in [8], 21.4 µM (inactive).

For the compound `CCCCCCCCCOC(=S)NCCCCC`, the GI50 in test [1] is 35.6 µM (inactive); in [2] it was 21.7 µM (inactive); in test [3], 25.5 µM (inactive); in test [4], 33.4 µM (inactive); in test [9], 23.8 µM (inactive); in test [5], 39.3 µM (inactive). Further, the GI50 in test [7] was 40.6 µM (inactive).

Take `C=CCNC(=S)N1c2ccccc2NC(=O)CC1C` (stereo not drawn): the GI50 in test [2], in test [3], in test [9], in test [5], in test [7] and in test [8] was > 100 µM (inactive) each time.

Regarding `CN(C)CC1CCCC/C1=N/OC(=O)c1ccc(Cl)cc1` (stereo not drawn), the GI50 in [1], in [3], in [4], in [9], in test [5] and in test [7] was > 100 µM (inactive) each time. Also, the GI50 in test [8] is > 100 µM (inactive).

As for `CC[C@](C)(O)C(=O)O[C@H]1C(=O)O[C@@H]2C[C@H]3C(C)=CC(=O)[C@@H](O)[C@]3(C)[C@H]3[C@@]4(O)OC[C@]32[C@@H]1[C@@H](C)[C@H]4O` [GLAUCARUBINONE], the GI50 is 0.05 µM (active) in test [3], 0.05 µM (active) in test [5], 0.543 µM (active) in test [6] and 0.0668 µM (active) in test [7].

Turning to `N=C(N)N/N=C(/CCN1CCCC1)CC(c1ccccc1)c1c(O)c2ccccc2oc1=O` (stereo not drawn), the GI50 in [1], in [2], in test [9], in test [5], in test [6] and in test [8] was > 100 µM (inactive) throughout.

On to `CCOC(=O)/C(=C/c1ccc(OC)c(OC)c1)C(=O)c1ccccc1`, for which the GI50 was 15.4 µM (inactive) in test [1]; 15.2 µM (inactive) in test [2]; 18.4 µM (inactive) in test [9]; 19 µM (inactive) in test [5]; 17.1 µM (inactive) in test [7]; 14.9 µM (inactive) in test [8].

As for `O=c1cccccc1NCCCCCCCNc1cccccc1=O`, the GI50 in [1] was 42.6 µM (inactive); in [3] it was 33.3 µM (inactive); in [9], 38.1 µM (inactive); in test [5], 24 µM (inactive); in test [6], 8.02 µM (inactive); in test [7] it was 47.8 µM (inactive). For the same compound, the GI50 in test [8] is 10.6 µM (inactive).

As to `COC(=O)NN1C(C)=C(C(=O)OC)C2(C#N)C(C(=O)OC)=C(C)N(NC(=O)OC)C12N` (stereo not drawn), the GI50 in test [1], in test [2], in test [3], in test [4], in [9] and in [5] was > 100 µM (inactive) throughout. For the same compound, the GI50 in test [6], in test [7] and in [8] was > 100 µM (inactive) in each case.

Consider `OC[C@@H]1CC#C/C=C\C#CC[C@@H]1CO`, for which the GI50 was > 100 µM (inactive) in test [1]; > 100 µM (inactive) in [2]; > 100 µM (inactive) in test [4]; > 100 µM (inactive) in test [5]; > 100 µM (inactive) in test [7]; 0.471 µM (active) in [8].

For `CCNC(=O)O/N=C1/C=C2CC[C@@H]3C(CC[C@@]4(C)C3CC[C@@H]4OC(=O)NCC)[C@@]2(C)CC1` (stereo partly drawn), the GI50 in [1] was 5.9 µM (inactive); in [2], 1.66 µM (inactive); in [3] it was 1.99 µM (inactive); in test [9] it was 2.28 µM (inactive); in test [5], 3.13 µM (inactive); in test [7] it was 2.67 µM (inactive).

Consider `C#CC[C@]12CC(=O)CC[C@H]1CC(=O)C2`, for which the GI50 in [1], in test [3], in test [4], in test [9], in [5] and in [6] was > 100 µM (inactive) throughout. Besides, the GI50 in [7] is > 100 µM (inactive).

Regarding `Cc1[nH]c2ccccc2c1CC/C(=N\Nc1ccccc1)c1ccccc1`, the GI50 in test [1] was > 100 µM (inactive); in test [3], > 100 µM (inactive); in test [9] it was > 100 µM (inactive); in [6], > 100 µM (inactive); in [7] it was > 100 µM (inactive); in test [8], 78.2 µM (inactive).

Take `Cc1ccc(Oc2ccccc2N)cc1`: the GI50 is 35 µM (inactive) in test [1]; 17.4 µM (inactive) in [2]; 32 µM (inactive) in test [3]; > 100 µM (inactive) in [4]; 12.7 µM (inactive) in test [9]; > 100 µM (inactive) in test [6]. In addition, the results for the GI50 in test [7] and in test [8] were 29 µM (inactive) and 17.8 µM (inactive), respectively.

In the case of `CCCCCCCC/C=C1\CCC(CN2CCOCC2)C1=O` (stereo not drawn), the GI50 was 2.8 µM (inactive) in test [1]; 6.41 µM (inactive) in [2]; 13.1 µM (inactive) in test [4]; 16.3 µM (inactive) in test [9]; 8.65 µM (inactive) in [5]; 8.95 µM (inactive) in test [6]. Also, the figures for the GI50 in test [7] and in [8] were 10.5 µM (inactive) and 14.2 µM (inactive), respectively.

On to `CC(C)c1cccc(C(C)C)c1NC(=O)C(=O)C1SC(=S)NC1=O` (stereo not drawn), for which the GI50 in [1], in test [3], in test [4], in test [9], in test [5] and in test [6] was > 100 µM (inactive) throughout. Besides, the GI50 in [7] and in test [8] was > 100 µM (inactive) in each case.

For `Cn1c(=O)c2nc(-c3ccc(Cl)cc3)oc2n(C)c1=O`, the GI50 in [1], in test [2], in test [3], in [4], in [9] and in test [5] was > 100 µM (inactive) throughout. Also, the GI50 in test [7] and in [8] was > 100 µM (inactive) throughout.

The record behind these values is ChEMBL document CHEMBL1201862, “PubChem BioAssay data set” (2004).
